Inhibition and IC50 data for 41 molecules are collected here from PubChem BioAssay AID850 (SRMLSC, 2007).

Each structure is given as a SMILES string. Activity calls are given as the source filed them. No rule for the calls is given here. Some results are limits rather than exact numbers.

Assay [1] in a line: yeast lifespan-shortening chemical project counter-assay, dose-response inhibition of growth under permissive conditions (AID 850).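 Also: growth read as optical density after one day of incubation.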 As to conditions: Saccharomyces cerevisiae growth inhibition, permissive control, measured here: maximum growth inhibition, stronger effect = higher value.
The test system of assay [2] is Saccharomyces cerevisiae growth inhibition, permissive control. The assay is described as above.

For `Cc1cccc(/C(N)=N/OC(=O)c2ccc(F)cc2)c1`, in assay [1] (at 50 µM), the inhibition was 23.4%. The IC50 in assay [2] was > 100 µM (inactive).
For the molecule `Cc1cc(O)c(/C=N/Nc2ccc(Cl)cc2)c(=O)o1`, the inhibition in assay [1] (at 25 µM) worked out at 98.2%. Further, the half-maximal inhibitory concentration (IC50) in assay [2] was 3.93 µM.
`CCOC(=O)c1cc([N+](=O)[O-])c([N+](=O)[O-])cc1NC(C)=O`: the inhibition in assay [1] (at 12.5 µM) worked out at 99.6%. In addition, the concentration for half-maximal inhibition (IC50) in assay [2] is under 0.098 µM.
`Cc1ncc(CC(=O)n2cc(C(=O)c3cc(Cl)ccc3O)cn2)s1`: the inhibition in assay [1] (at 50 µM) stood at 100%. The 50% inhibitory concentration (IC50) in assay [2] is 5.42 µM.
Regarding `CCN(CC)N=Nc1[nH]nc2nc(C)cc(C)c12`, the inhibition in assay [1] (at 50 µM) worked out at 55.1%. Besides, the IC50 in assay [2] is 48.6 µM.
Regarding `C=CCn1c2ccccc2c2nnc(SCN3C(=O)c4ccccc4C3=O)nc21`, the inhibition in assay [1] (at 6.25 µM) was 12.7%. In addition, the IC50 in assay [2] was > 100 µM (inactive).
In the case of `c1ccc(-c2nnc(-c3ccccn3)nc2NC2CCCCC2)cc1`, in assay [1] (at 50 µM), the inhibition is 99.6%. Further, in assay [2], the IC50 is 12.6 µM.
For `CCOC(=O)c1cnc(-n2nc(C)cc2C)nc1NCCc1ccccc1`, in that order: 17.4% and > 100 µM (inactive).
Regarding `O=C(c1ccc(C(=O)N2CCCc3ccccc32)s1)N1CCCc2ccccc21`, the inhibition in assay [1] (at 50 µM) amounted to 87%. For the same molecule, the IC50 in assay [2] is 34.1 µM.
On to `c1ccc(Cc2nnc3sc(-c4ccc5c(c4)OCCO5)nn23)cc1`, for which, in assay [1] (at 1.563 µM), the inhibition was 14.5%. The IC50 in assay [2] is > 100 µM (inactive).
Turning to `COC(=O)c1ccc(C(=O)OC)c(NC(=O)CSc2cccc[n+]2[O-])c1`, in assay [1], the inhibition turned out to be 100%. Moreover, the half-maximal inhibitory concentration (IC50) in assay [2] is 1.09 µM.
Take `Cc1cc(-c2ccco2)c(C#N)c2nc3ccccc3n12`: the inhibition in assay [1] (at 50 µM) was found to be 77.8%. In assay [2], the IC50 is 8.64 µM.
Consider `Cc1cccc(C(=O)CC(=O)c2cc(Cl)ccc2O)c1`, for which, in assay [1] (at 50 µM), the inhibition is 52.9%. Besides, the IC50 in assay [2] was 35.8 µM.
For `C=C(C)COc1ccc(-c2[nH]ncc2-c2ccccc2)c(O)c1`, in that order: 86.8% and 38.6 µM.
For `Fc1ccc(-c2ccc(-c3nn4c(-c5ccco5)nnc4s3)o2)cc1`, in assay [1] (at 6.25 µM), the inhibition worked out at 13.4%. In addition, the IC50 in assay [2] was > 100 µM (inactive).
On to `CC(Oc1ccc2ccccc2c1)C(=O)NNC(=S)NC(=O)c1ccco1` (configuration not stated), for which the inhibition in assay [1] (at 50 µM) stood at 98.6%. Moreover, the IC50 in assay [2] was 11.3 µM.
For `Fc1ccc(N/N=C2/CC(c3ccccc3)Oc3ccccc32)c(F)c1` (configuration not stated), in that order: 95.9% and 25.9 µM.
In the case of `Cc1ccc2c(c1)C(=NC1CCCCC1)c1cc3ccccc3nc1-2`, the inhibition in assay [1] (at 12.5 µM) was found to be 22.8%. In addition, the IC50 in assay [2] was > 100 µM (inactive).
The matching figures for `CCOC(=O)c1ccc(-n2[nH]c(-c3ccccc3)cc2=O)cc1`: 47.7% and 47.7 µM.
In the case of `CC(C)(C)c1ccc(C(=O)NC(=S)NNC(=O)c2cccs2)cc1`, the inhibition in assay [1] (at 50 µM) was 53.8%. Further, the IC50 in assay [2] was 41.7 µM.
For `Cc1ccc(-c2nn(C(C)(C)C)c3ncnc(N)c23)cc1`, in that order: 84.2% and 0.458 µM.
For `O=C(c1ccc(Cl)cc1)c1c[nH]c(C(=O)C(Cl)(Cl)Cl)c1`, in that order: 77.6% and 47.4 µM.
The matching figures for `O=C(CSc1cccc[n+]1[O-])c1cc2ccccc2o1`: 99.2% and 3.68 µM.
In the case of `CCCCCCN1N=C(C)C(C(=O)c2ccc(Cl)cc2)C1=O` (configuration not stated), the inhibition in assay [1] (at 50 µM) stood at 75%. In assay [2], the IC50 was 24.5 µM.
Take `C=CCC1c2cccc(C(=O)O)c2C(=O)N1c1cccc(C)c1` (configuration not stated): in assay [1] (at 25 µM), the inhibition was 44.4%. Also, the half-inhibitory concentration (IC50) in assay [2] is 49.7 µM.
In the case of `COc1cc(-c2nc3ccc4ccccc4c3c3c2CCC3)ccc1O`, the inhibition in assay [1] (at 3.125 µM) came out at 11.9%. Further, in assay [2], the IC50 was > 100 µM (inactive).
Regarding `Cc1cc(O)c(/C=N/Nc2ccccc2Cl)c(=O)o1`, in assay [1] (at 50 µM), the inhibition worked out at 95.1%. The concentration for half-maximal inhibition (IC50) in assay [2] is 22.3 µM.
As to `CC(C)(C)c1cc(NCCCn2ccnc2)n2ncc(-c3ccc(Cl)cc3)c2n1`, the inhibition in assay [1] (at 12.5 µM) is 1.41%. Further, the IC50 in assay [2] is > 100 µM (inactive).
Consider `Cc1ccc2c(c1)-c1nc3ccccc3cc1C2=NC1CCCCC1`, for which the inhibition in assay [1] (at 50 µM) came to 16.8%. Moreover, the IC50 in assay [2] was > 100 µM (inactive).
In the case of `O=C(Nc1cccc(C(F)(F)F)c1)C(Sc1cccc[n+]1[O-])c1ccccc1` (configuration not stated), the inhibition in assay [1] (at 50 µM) stood at 90.2%. For the same molecule, in assay [2], the 50% inhibitory concentration (IC50) was 31.4 µM.
As to `NC(=O)c1ccc(N=Cc2ccc([N+](=O)[O-])s2)cc1`, in assay [1] (at 50 µM), the inhibition is 101%. Moreover, in assay [2], the concentration for half-maximal inhibition (IC50) is 11 µM.
Take `CCCCNC(=S)NCc1ccc2c(c1)cc(C)n2C`: the inhibition in assay [1] (at 0.781 µM) was 0.79%. Moreover, the IC50 in assay [2] is > 100 µM (inactive).
As for `CCOC(=O)C1=Nc2ccccc2C1=[N+]=[N-]`, the inhibition in assay [1] (at 50 µM) came to 99.2%. Moreover, the half-maximal inhibitory concentration (IC50) in assay [2] is 5.45 µM.
The matching figures for `Oc1ccc2ccccc2c1N=Nc1ccccn1`: 97.5% and 25 µM.
For `CC(C)(C)c1ccc(-c2nc(-c3ccncc3)no2)cc1`, in that order: 48.7% and 47 µM.
For `CCC(C)NC(=O)CS(=O)Cc1nc(-c2ccccc2C)oc1C` (configuration not stated), the inhibition in assay [1] (at 1.563 µM) came to 23.5%. Besides, the IC50 in assay [2] is > 100 µM (inactive).
Turning to `CCOC(=O)N1CCN(C(=O)Cn2nc(C)c3sc4ccccc4c3c2=O)CC1`, the inhibition in assay [1] (at 25 µM) came to 12.1%. In addition, the IC50 in assay [2] is > 100 µM (inactive).
Take `CCc1ccc(/C=C/C(=O)c2cc(Br)ccc(=O)c2O)cc1`: the inhibition in assay [1] (at 50 µM) stood at 83.6%. For the same molecule, the IC50 in assay [2] was 13.3 µM.
For the molecule `Cc1cc(C)c2c(=O)n(CC(=O)N3CCC(Cc4ccccc4)CC3)sc2n1`, the inhibition in assay [1] (at 0.391 µM) turned out to be 6.81%. Besides, the IC50 in assay [2] is > 100 µM (inactive).
Turning to `C/C(=N\Nc1ccc([N+](=O)[O-])cc1)c1ccc(N)cc1`, the inhibition in assay [1] (at 50 µM) was found to be 94.4%. The IC50 in assay [2] was 6.04 µM.
As for `O=C(c1cc(-c2ccccc2O)on1)N1CCc2ccccc2C1`, the inhibition in assay [1] (at 0.391 µM) is 16.3%. For the same molecule, the IC50 in assay [2] was > 100 µM (inactive).
